Results on one substance are retold here after patent US7445894B2, “Compositions and methods for detection and isolation of phosphorylated molecules” (priority 2002, dated 2008).

One experiment concerns the target T1, pDSIP (Oryctolagus cuniculus, UniProt P01158).
T1 construct: purchased SynPep Corporation
Description: Total phosphopeptide detection on microarray with binding solution. As to conditions: 1 μM Compound 2, 1 μM GaCl3, pH 4.0. The method, then:
(A) Three pairs of peptides, the phosphorylated and the non-phosporylated forms of Kemptide, pp60 c-src and DSIP, were arrayed on to HydroGel coated slides (Perkin Elmer) from a source plate (384-well) with a concentration of 0.95 μg/ml-0.5 mg/ml peptide in water, using the BioChip Arrayer™ (Perkin Elmer) as described in Example 20. For specific detection of the phosphopeptides on the array, the slides were incubated for 45 minutes on a rotisserie in a binding solution comprising 1 μM Compound 2, in buffer containing 0.5 M NaCl, 20% 1,2 propanediol, 1 μM GaCl3, and 0.05 M sodium acetate, pH 4.0. Slides were then washed three times for 15 minutes on a rotisserie in 0.05 M sodium acetate, pH 4.0, containing 4% acetonitrile followed by a 15 minute water wash. Slides were then spun briefly in a microarray high-speed centrifuge affixed with a rotor with a slide holder (Telechem) at ˜6000 rpm to remove excess liquid. After slides were dry, the arrays were imaged using the ScanArray® 5000 XL Microarray Analysis System (Packard Instrument Co., Meriden, Conn.) using the 543.5 nm laser and 570 nm emission filter. […] Using the 543.5 nm excitation and 570 nm emission filter, there was no signal detected. Using the 632.8 nm excitation and 670 nm emission filter, pp60 c-src (pY) was specifically detected to a sensitivity of 5.2 pg.

For another experiment, the target named is T2, β-casein (Bos taurus, UniProt P02666).
T2 sequence (P02666 16-224): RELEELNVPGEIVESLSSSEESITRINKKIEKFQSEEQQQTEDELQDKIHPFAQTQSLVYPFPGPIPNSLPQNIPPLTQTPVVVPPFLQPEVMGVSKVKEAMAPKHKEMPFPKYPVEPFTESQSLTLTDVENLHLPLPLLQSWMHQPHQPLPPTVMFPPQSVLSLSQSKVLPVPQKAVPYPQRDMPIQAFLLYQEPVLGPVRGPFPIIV
Description: Phosphoprotein detection on HydroGel microarray. As to conditions: pentaphosphorylated protein, binding solution with gallium chloride. The method, then:
The protein was loaded in a two-fold dilution series from 166 pg-0.324 pg on the microarray.
Four specific, purified proteins including β-casein, ovalbumin, pepsin and bovine serum albumin were arrayed from a source plate (384 well plate) at a concentration of 0.975 μg/mL-0.5 mg/mL in water, onto HydroGel coated slides (Perkin Elmer), using the BioChip Arrayer™ (Packard Instrument Co., Meriden, Conn.). The BioChip Arrayer™ utilizes a PiezoTip™ Dispenser consisting of 4 glass capillaries. Proteins were dispensed from the PiezoTip™ by droplets 333 pL in volume to create array spots 175 microns in diameter with a 500 micron horizontal and vertical pitch (pitch=center to center spacing of spots). Proteins were arrayed in duplicate in four rows, with 10 dilution points, resulting in an array of 160 spots. The resulting concentration range of the array was 166.5 pg/spot-0.325 pg/spot. For detection of phosphoproteins, slides were incubated for 1 hour on a rotator in 1 μM of Compound 2, in buffer containing 0.5 M NaCl, 20% 1,2-propanediol, 1 μM GaCl3, and 0.05 M NaOAc, pH 4.0. Slides were then washed for 1 hour on a rotator in 0.05 M NaOAc, pH 4.0, containing 10% methanol followed by a 15 minute water wash. […] Phosphate content per protein was determined to be as follows: β-casein, five phosphates; ovalbumin, two phosphates; pepsin, one phosphate; and BSA, no phosphates.

For Rhod-5F [Compound 2], at pDSIP, the “amount specifically labeled on microarray” value fell in the range of 1.3 to 2.6 pg. Further, the “amount detected on HydroGel microarray” value at β-casein stood at 0.65 pg.
